Legend:
Assay in all cases: relative viability (nuclei count vs DMSO), 5 days (fraction); higher = more cells survive
COR-L 105 = system: COR-L 105
Summary of the method: (§1)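 Lung cancer cell lines in 1536-well plates got either a single drug or a fixed anchor-drug dose together with five library-drug doses (not always all listed) in √10 steps, by pin tool, on the day after seeding. Nuclei were counted after 5 days, and relative viability is the treated-to-vehicle ratio of nuclei counts. Values are medians of duplicate plates.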

ChaGo-K-1 = system: ChaGo-K-1
Summary of the method: as §1

EPLC-272H = system: EPLC-272H
Summary of the method: as §1

HCC-15 = system: HCC-15
Summary of the method: as §1

HCC-366 = system: HCC-366
Summary of the method: as §1

HCC-78 = system: HCC-78
Summary of the method: as §1

HCC-827 = system: HCC-827
Summary of the method: as §1

LCLC-103H = system: LCLC-103H
Summary of the method: as §1

NCI-H1437 = system: NCI-H1437
Summary of the method: as §1

NCI-H1792 = system: NCI-H1792
Summary of the method: as §1

NCI-H1944 = system: NCI-H1944
Summary of the method: as §1

NCI-H2085 = system: NCI-H2085
Summary of the method: as §1

NCI-H2342 = system: NCI-H2342
Summary of the method: as §1

NCI-H3122 = system: NCI-H3122
Summary of the method: as §1

NCI-H358 = system: NCI-H358
Summary of the method: as §1

NCI-H661 = system: NCI-H661
Summary of the method: as §1

NCI-H727 = system: NCI-H727
Summary of the method: as §1

PC-14 = system: PC-14
Summary of the method: as §1

SK-LU-1 = system: SK-LU-1
Summary of the method: as §1

SK-MES-1 = system: SK-MES-1
Summary of the method: as §1

UMC-11 = system: UMC-11
Summary of the method: as §1

## COCC1(CO)C(=O)C2CCN1CC2 (stereo unspecified) [PRIMA-1MET] + Cc1nc(Nc2ncc(C(=O)Nc3c(C)cccc3Cl)s2)cc(N2CCN(CCO)CC2)n1 [Dasatinib] (partner 0.075 µM)
COR-L 105; first compound 0.2 µM
  relative viability: 0.346
COR-L 105; first compound 0.6325 µM
  relative viability: 0.404
COR-L 105; first compound 2 µM
  relative viability: 0.292
COR-L 105; first compound 6.325 µM
  relative viability: 0.161
COR-L 105; first compound 20 µM
  relative viability: 0.091
ChaGo-K-1; first compound 0.2 µM
  relative viability: 0.626
ChaGo-K-1; first compound 0.6325 µM
  relative viability: 0.567
ChaGo-K-1; first compound 2 µM
  relative viability: 0.687
ChaGo-K-1; first compound 6.325 µM
  relative viability: 0.54
ChaGo-K-1; first compound 20 µM
  relative viability: 0.363
EPLC-272H; first compound 2 µM
  relative viability: 0.349
EPLC-272H; first compound 6.325 µM
  relative viability: 0.347
EPLC-272H; first compound 20 µM
  relative viability: 0.0979
HCC-15; first compound 0.2 µM
  relative viability: 0.732
HCC-15; first compound 0.6325 µM
  relative viability: 0.628
HCC-15; first compound 2 µM
  relative viability: 0.639
HCC-15; first compound 6.325 µM
  relative viability: 0.625
HCC-15; first compound 20 µM
  relative viability: 0.181
HCC-366; first compound 0.2 µM
  relative viability: 0.854
HCC-366; first compound 0.6325 µM
  relative viability: 0.527
HCC-366; first compound 2 µM
  relative viability: 0.619
HCC-366; first compound 6.325 µM
  relative viability: 0.67
HCC-366; first compound 20 µM
  relative viability: 0.318
HCC-78; first compound 0.2 µM
  relative viability: 0.427
HCC-78; first compound 0.6325 µM
  relative viability: 0.331
HCC-78; first compound 6.325 µM
  relative viability: 0.442
HCC-78; first compound 20 µM
  relative viability: 0.335
HCC-827; first compound 0.2 µM
  relative viability: 0.417
HCC-827; first compound 0.6325 µM
  relative viability: 0.337
HCC-827; first compound 2 µM
  relative viability: 0.427
HCC-827; first compound 6.325 µM
  relative viability: 0.332
HCC-827; first compound 20 µM
  relative viability: 0.315
LCLC-103H; first compound 0.2 µM
  relative viability: 0.566
LCLC-103H; first compound 0.6325 µM
  relative viability: 0.422
LCLC-103H; first compound 2 µM
  relative viability: 0.431
LCLC-103H; first compound 6.325 µM
  relative viability: 0.447
LCLC-103H; first compound 20 µM
  relative viability: 0.342
NCI-H1437; first compound 0.2 µM
  relative viability: 0.435
NCI-H1437; first compound 0.6325 µM
  relative viability: 0.184
NCI-H1437; first compound 2 µM
  relative viability: 0.43
NCI-H1437; first compound 6.325 µM
  relative viability: 0.405
NCI-H1437; first compound 20 µM
  relative viability: 0.286
NCI-H1792; first compound 0.2 µM
  relative viability: 0.816
NCI-H1792; first compound 0.6325 µM
  relative viability: 0.717
NCI-H1792; first compound 2 µM
  relative viability: 0.811
NCI-H1792; first compound 6.325 µM
  relative viability: 0.883
NCI-H1792; first compound 20 µM
  relative viability: 0.754
NCI-H1944; first compound 0.2 µM
  relative viability: 0.225
NCI-H1944; first compound 0.6325 µM
  relative viability: 0.19
NCI-H1944; first compound 2 µM
  relative viability: 0.213
NCI-H1944; first compound 6.325 µM
  relative viability: 0.219
NCI-H1944; first compound 20 µM
  relative viability: 0.232
NCI-H2085; first compound 0.2 µM
  relative viability: 0.248
NCI-H2085; first compound 0.6325 µM
  relative viability: 0.23
NCI-H2085; first compound 2 µM
  relative viability: 0.249
NCI-H2085; first compound 6.325 µM
  relative viability: 0.248
NCI-H2085; first compound 20 µM
  relative viability: 0.192
NCI-H2342; first compound 0.2 µM
  relative viability: 0.327
NCI-H2342; first compound 0.6325 µM
  relative viability: 0.305
NCI-H2342; first compound 2 µM
  relative viability: 0.347
NCI-H2342; first compound 6.325 µM
  relative viability: 0.295
NCI-H2342; first compound 20 µM
  relative viability: 0.333
NCI-H3122; first compound 0.2 µM
  relative viability: 0.382
NCI-H3122; first compound 0.6325 µM
  relative viability: 0.806
NCI-H3122; first compound 2 µM
  relative viability: 0.439
NCI-H3122; first compound 6.325 µM
  relative viability: 0.433
NCI-H3122; first compound 20 µM
  relative viability: 0.856
NCI-H358; first compound 0.2 µM
  relative viability: 0.186
NCI-H358; first compound 2 µM
  relative viability: 0.174
NCI-H358; first compound 6.325 µM
  relative viability: 0.178
NCI-H358; first compound 20 µM
  relative viability: 0.0822
NCI-H661; first compound 0.2 µM
  relative viability: 0.858
NCI-H661; first compound 0.6325 µM
  relative viability: 0.733
NCI-H661; first compound 2 µM
  relative viability: 0.89
NCI-H661; first compound 6.325 µM
  relative viability: 0.883
NCI-H661; first compound 20 µM
  relative viability: 0.796
NCI-H727; first compound 0.2 µM
  relative viability: 0.273
NCI-H727; first compound 0.6325 µM
  relative viability: 0.346
NCI-H727; first compound 2 µM
  relative viability: 0.351
NCI-H727; first compound 6.325 µM
  relative viability: 0.225
NCI-H727; first compound 20 µM
  relative viability: 0.166
PC-14; first compound 0.2 µM
  relative viability: 0.249
PC-14; first compound 0.6325 µM
  relative viability: 0.249
PC-14; first compound 2 µM
  relative viability: 0.276
PC-14; first compound 6.325 µM
  relative viability: 0.249
PC-14; first compound 20 µM
  relative viability: 0.0176
SK-LU-1; first compound 0.2 µM
  relative viability: 0.192
SK-LU-1; first compound 0.6325 µM
  relative viability: 0.177
SK-LU-1; first compound 2 µM
  relative viability: 0.186
SK-LU-1; first compound 6.325 µM
  relative viability: 0.155
SK-LU-1; first compound 20 µM
  relative viability: 0.0741
SK-MES-1; first compound 0.2 µM
  relative viability: 0.303
SK-MES-1; first compound 0.6325 µM
  relative viability: 0.475
SK-MES-1; first compound 2 µM
  relative viability: 0.447
SK-MES-1; first compound 6.325 µM
  relative viability: 0.286
SK-MES-1; first compound 20 µM
  relative viability: 0.242
UMC-11; first compound 0.2 µM
  relative viability: 0.53
UMC-11; first compound 0.6325 µM
  relative viability: 0.466
UMC-11; first compound 2 µM
  relative viability: 0.504
UMC-11; first compound 6.325 µM
  relative viability: 0.464
UMC-11; first compound 20 µM
  relative viability: 0.444
